Test results: patent US20240336596A1, “PARP7 INHIBITOR AND USE THEREOF” (NOVOSTAR PHARMACEUTICALS, LTD., priority 2022, published 2024)

Legend:
NCI-H1373 cancer cells = assay: NCI-H1373 cancer cell growth inhibition (CellTiter-Glo, 144 hours); type: cell-based; conditions: Homo sapiens, 144 hours culture
Experimental: Promega CellTiter-Glo cell activity assay kit (Item No.: Promege-G7573) was used to determine the cell activity. 90 μL NCI-H1373 cell suspension (ATCC, catalog No. CRL-5866, batch No. 58078716) was spread into the pores of the 96-well plate with 3500 cells per well. After 24 hours, the 10 μL prepared 10× compound working solution was added into the pores of the cell culture plate with a final concentration of 10 μM. 3.3333 μM, 1.1111 μM, 0.3704 μM, 0.1235 μM, 0.0412 μM, 0.0137 μM, 0.0046 μM, 0.0015 μM, 0.0005 μM, 10 μL DMSO was added to the solvent control, and the final concentration of DMSO was 0.2%. The 0-day plates were collected for analysis, and after 144 hours of culture, the growth condition of cells was detected according to the instructions of CellTiter-Glo cell activity assay kit. Add 50 μL of CellTiter-Glo working liquid into each hole of the cell culture plate, shake the plates in the dark for 2 minutes until cell lysis, and place at room temperature for 10 minutes to detect the luminous signal (RUL) of each cell hole on the 2104En Vision board reader.
Calculation formula: Growth inhibition rate %=(1−(RLU compound−RLU Day0)/(RLU solvent control−RLU Day0))*100%. The dose-response curves of each compound were fitted by GraphPad Prism 8 to obtain IC50 values.
For the matter, IC50 values less than 0.1 μM are labeled “+++”, values from 0.1 to 1 μM are labeled “++”, and values greater than 1 to 10 μM are labeled “+”.

[1] = molecular target: T1, recombinant human PARP7 protein (Homo sapiens, UniProt Q7Z3E1); assay: Inhibition of PARP7 biological enzyme activity (histone-coated plate, Biotin-NAD+, chemiluminescence); type: biochemical; conditions: recombinant human PARP7, Biotin-NAD+ substrate
T1 construct: purchased Abcam ab271651
T1 sequence (Q7Z3E1 1-657): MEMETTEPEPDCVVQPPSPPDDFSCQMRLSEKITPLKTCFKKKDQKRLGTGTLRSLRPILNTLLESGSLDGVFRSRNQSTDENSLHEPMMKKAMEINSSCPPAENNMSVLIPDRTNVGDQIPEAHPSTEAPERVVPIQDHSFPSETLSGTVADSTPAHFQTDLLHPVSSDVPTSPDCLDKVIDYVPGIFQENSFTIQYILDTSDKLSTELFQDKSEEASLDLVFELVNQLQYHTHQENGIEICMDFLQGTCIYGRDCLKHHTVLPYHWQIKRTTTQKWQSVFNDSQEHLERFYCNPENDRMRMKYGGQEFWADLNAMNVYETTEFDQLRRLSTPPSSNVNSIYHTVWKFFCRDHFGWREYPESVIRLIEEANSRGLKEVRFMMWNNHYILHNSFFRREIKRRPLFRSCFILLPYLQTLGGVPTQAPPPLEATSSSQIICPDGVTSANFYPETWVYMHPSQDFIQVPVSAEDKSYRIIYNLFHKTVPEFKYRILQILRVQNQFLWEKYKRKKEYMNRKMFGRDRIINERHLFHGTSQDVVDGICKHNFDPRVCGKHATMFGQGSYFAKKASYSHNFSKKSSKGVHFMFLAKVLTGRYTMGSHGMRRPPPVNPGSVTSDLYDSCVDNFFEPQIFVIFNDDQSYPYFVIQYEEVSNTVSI
Experimental: The recombinant human PARP7 protein kit (Abcam, catalog number ab271651) was used for the assay. According to the kit instructions, 30 μL of histone coating solution (1.5 μg/mL) was first applied to the 384 well holes of the reaction plate and coated at 4° C. for 2 hours. Then, the histone coated solution was washed off, and 50 μL sealing buffer was added to each well, and the sealing buffer was washed off after incubation at 25° C. for 60 minutes. 1000 times the concentration of the compound was 10 configured and diluted from 1 mM to 0.05 μM, and the configured compound was transferred to 384-well plates with 25 nL per well using Echo. The final concentration of the compound in the reaction system was 1000 nM, 333.33 nM, 111.11 nM, 37.03 nM, 12.34 nM, 4.11 nM, 1.37 nM, 0.45 nM, 0.15 nM, 0.05 nM, which was used as the test hole. At the same time, 25 nL DMSO was added to the negative control well and the positive control well. The PARP7 enzyme solution with a concentration of 1.67 times was prepared, and the PARP7 enzyme solution was added to the test hole and the positive control hole with 15 μL each, while the negative control hole was added with 15 μL base Buffer, and incubated at 25° C. for 15 minutes. Then 10 μL 2.5 times Biotin-NAD+ substrate solution was added and incubated at 25° C. for 60 min. After the reaction solution was washed off, the 384-well reaction plates were treated with closed buffer solution diluted with streptavidin-HRP (1:500), each well was 30 μL, and incubated at 25° C. for 30 min. After the HRP buffer was washed off, 30 μL HRP chemiluminescent substrate mixture was added to each well, and the luminescence signal (RLU) of each well was detected by Envision. Calculation formula: Inhibition rate %=(average positive control-RLU compound)/(average positive control-average negative control))*100%. The dose-response curves of each compound were fitted by GraphPad Prism 8 to get IC50 values. IC50 values less than 0.01 μM are labeled as “+++”, IC50 values from 0.01 to 0.1 µM are labeled as “++”, and IC50 values greater than 0.1 to 10.0 μM are labeled as “+”.

| Structure (SMILES) | IC50 (NCI-H1373 cancer cells) [nM] | IC50 [1] [nM] |
| --- | --- | --- |
| C[C@@H](CO/N=C/C(=O)N1CCN(c2ncc(C(F)(F)F)cn2)CC1)Nc1cn[nH]c(=O)c1C(F)(F)F [Example 15, (S,E)-2-oxo-2-(4-(5-(trifluoromethyl)pyrimidin-2-yl)piperazin-1-yl)acetaldehyde O-(2-((6-oxo-5-(trifluoromethyl)-1,6-dihydropyridazin-4-yl)amino)propyl) oxime] | 100 to 1000 | < 10 |
| O=C(CO/N=C/[C@@H](Nc1cn[nH]c(=O)c1C(F)(F)F)C1CC1)N1CCN(c2ncc(C(F)(F)F)cn2)CC1 [Example 10, (S,E)-2-cyclopropyl-2-((6-oxo-5-(trifluoromethyl)-1,6-dihydropyridazin-4-yl)amino)acetaldehyde O-(2-oxo-2-(4-(5-(trifluoromethyl)pyrimidin-2-yl)piperazin-1-yl)ethyl) oxime] | 100 to 1000 | < 10 |
| CC[C@@H](/C=N/OCC(=O)N1CCN(c2ncc(C(F)(F)F)cn2)CC1)Nc1cn[nH]c(=O)c1C(F)(F)F [Example 6, (S,E)-2-((6-oxo-5-(trifluoromethyl)-1,6-dihydropyridazin-4-yl)amino)butanal O-(2-oxo-2-(4-(5-(trifluoromethyl)pyrimidin-2-yl)piperazin-1-yl)ethyl)oxime] | 100 to 1000 | < 10 |
| C[C@@H](/C=N/OCC(=O)N1CCN(c2ncc(C#N)cn2)CC1)Nc1cn[nH]c(=O)c1C(F)(F)F [Example 7, (S,E)-2-(4-(2-(((2-((6-oxo-5-(trifluoromethyl)-1,6-dihydropyridazin-4-yl)amino)propylidene)amino)oxy)acetyl)piperazin-1-yl)pyrimidine-5-carbonitrile] | 1000 to 10000 | < 10 |
| C[C@@H](/C=N/OCCC1CCN(c2ncc(C(F)(F)F)cn2)CC1)Nc1cn[nH]c(=O)c1C(F)(F)F [Example 14, (S,E)-2-((6-oxo-5-(trifluoromethyl)-1,6-dihydropyridazin-4-yl)amino)propanal O-(2-(1-(5-(trifluoromethyl)pyrimidin-2-yl)piperidin-4-yl)ethyl) oxime] | 1000 to 10000 | < 10 |
| C[C@@H]1CN(c2ccc(C#N)cn2)CCN1C(=O)CO/N=C/[C@H](C)Nc1cn[nH]c(=O)c1C(F)(F)F [Example 13, 6-((R)-3-methyl-4-(2-(((E)-((S)-2-((6-oxo-5-(trifluoromethyl)-1,6-dihydropyridazin-4-yl)amino)propylidene)amino)oxy)acetyl)piperazin-1-yl)nicotinonitrile] | 1000 to 10000 | < 10 |
| CC(/C=N/OCC(=O)N1CCN(c2ccc(C(F)(F)F)cn2)CC1)c1cccc2c(=O)[nH]ncc12 (stereo not drawn) [Example 19, (E)-2-(1-oxo-1,2-dihydrophthalazin-5-yl)propanal O-(2-oxo-2-(4-(5-(trifluoromethyl)pyridin-2-yl)piperazin-1-yl)ethyl) oxime] | 1000 to 10000 | < 10 |
| C[C@@H](CN(C)OCC(=O)N1CCN(c2ncc(C(F)(F)F)cn2)CC1)Nc1cn[nH]c(=O)c1C(F)(F)F [Example 2, (S)-5-((1-(methyl(2-oxo-2-(4-(5-(trifluoromethyl)pyrimidin-2-yl)piperazin-1-yl)ethoxy)amino)propan-2-yl)amino)-4-(trifluoromethyl)pyridazin-3(2H)-one] | – | < 10 |
| C[C@@H](CN(C)OCC(=O)N1CCN(c2ncc(C#N)cn2)CC1)Nc1cn[nH]c(=O)c1C(F)(F)F [Example 4, (S)-2-(4-(2-((methyl(2-((6-oxo-5-(trifluoromethyl)-1,6-dihydropyridazin-4-yl)amino)propyl)amino)oxy)acetyl)piperazin-1-yl)pyrimidine-5-carbonitrile] | – | 10 to 100 |

Other lines, results leading:

| IC50 (NCI-H1373 cancer cells) [nM] | IC50 [1] [nM] | Structure (SMILES) |
| --- | --- | --- |
| < 100 | < 10 | CC1CN(c2ncc(C3CC3)cn2)CC=C1CC(=O)NOC[C@H](C)Nc1cn[nH]c(=O)c1C(F)(F)F (stereo partly drawn) [Example 30, 2-(1-(5-cyclopropylpyrimidin-2-yl)-3-methyl-1,2,3,6-tetrahydropyridin-4-yl)-N—((S)-2-((6-oxo-5-(trifluoromethyl)-1,6-dihydropyridazin-4-yl)amino)propoxy)acetamide] |
| < 100 | < 10 | CC(=O)c1c(N[C@@H](C)CONC(=O)CC2CCN(c3ncc(C(F)(F)F)cn3)CC2)cn[nH]c1=O [Example 36, (S)—N-(2-((5-acetyl-6-oxo-1,6-dihydropyridazin-4-yl)amino)propoxy)-2-(1-(5-(trifluoromethyl)pyrimidin-2-yl)piperidin-4-yl)acetamide] |
| 100 to 1000 | < 10 | CC1CN(c2ncc(-c3ccccc3F)cn2)CC=C1CC(=O)NOC[C@H](C)Nc1cn[nH]c(=O)c1C(F)(F)F (stereo partly drawn) [Example 27, 2-(1-(5-(2-fluorophenyl)pyrimidin-2-yl)-3-methyl-1,2,3,6-tetrahydropyridin-4-yl)-N—((S)-2-((6-oxo-5-(trifluoromethyl)-1,6-dihydropyridazin-4-yl)amino)propoxy)acetamide] |
| 100 to 1000 | < 10 | C[C@@H](CONC(=O)CC1CCN(c2ncc(C(F)(F)F)cn2)CC1F)Nc1cn[nH]c(=O)c1C(F)(F)F (stereo partly drawn) [Example 53, 2-(3-fluoro-1-(5-(trifluoromethyl)pyrimidin-2-yl)piperidin-4-yl)-N—((S)-2-((6-oxo-5-(trifluoromethyl)-1,6-dihydropyridazin-4-yl)amino)propoxy)acetamide] |
| < 100 | < 10 | C[C@@H](CONC(=O)C(F)C1=CCN(c2ncc(C(F)(F)F)cn2)CC1)Nc1cn[nH]c(=O)c1C(F)(F)F (stereo partly drawn) [Example 22, 2-fluoro-N—((S)-2-((6-oxo-5-(trifluoromethyl)-1,6-dihydropyridazin-4-yl)amino)propoxy)-2-(1-(5-(trifluoromethyl)pyrimidin-2-yl)-1,2,3,6-tetrahydropyridin-4-yl) acetamide] |
| 100 to 1000 | < 10 | C[C@@H](CONC(=O)/C=C1\CCN(c2ncc(C(F)(F)F)cn2)CC1F)Nc1cn[nH]c(=O)c1C(F)(F)F (stereo partly drawn) [Example 23, (E)-2-(3-fluoro-1-(5-(trifluoromethyl)pyrimidin-2-yl)piperidin-4-ylidene)-N—((S)-2-((6-oxo-5-(trifluoromethyl)-1,6-dihydropyridazin-4-yl)amino)propoxy)acetamide] |
| < 100 | < 10 | C[C@@H](CONC(=O)CC1=CCN(c2ncc(-c3ccccc3F)cn2)CC1)Nc1cn[nH]c(=O)c1C(F)(F)F [Example 26, (S)-2-(1-(5-(2-fluorophenyl)pyrimidin-2-yl)-1,2,3,6-tetrahydropyridin-4-yl)-N-(2-((6-oxo-5-(trifluoromethyl)-1,6-dihydropyridazin-4-yl)amino)propoxy)acetamide] |
